Values of other authors in patent US4535248A, “Method for detecting aflatoxin in almonds” (priority 1984, dated 1985).

System: rats
Settings: for estimated effective dose, hepatocarcinogens (for comparison): similar estimates for other hepatocarcinogens

Row | Compound | effective dose for the induction of liver tumors (rat, in vivo) | estimated effective dose, hepatocarcinogens (for comparison)
1 | COc1cc2c(c3oc(=O)c4c(c13)CCC4=O)[C@@H]1C=CO[C@@H]1O2 [B1] | approximately 10 mg per day | 
2 | CN(C)c1ccc(N=Nc2ccccc2)cc1 [butteryellow] |  | 9,000 mg/day
3 | CN(C)N=O [dimethylnitrosamine] |  | 750 mg/day
